{
  "source": "patent US9006450B2",
  "about": "(Boehringer Ingelheim International GmbH, priority 2010, dated 2015)",
  "data": [
    {"target": "T1, human ACC2 (Homo sapiens, UniProt O00763)", "T1 construct": "made in house; host or cells: insect cells (baculoviral expression system)", "T1 sequence (O00763 129-2458 limits assumed)": "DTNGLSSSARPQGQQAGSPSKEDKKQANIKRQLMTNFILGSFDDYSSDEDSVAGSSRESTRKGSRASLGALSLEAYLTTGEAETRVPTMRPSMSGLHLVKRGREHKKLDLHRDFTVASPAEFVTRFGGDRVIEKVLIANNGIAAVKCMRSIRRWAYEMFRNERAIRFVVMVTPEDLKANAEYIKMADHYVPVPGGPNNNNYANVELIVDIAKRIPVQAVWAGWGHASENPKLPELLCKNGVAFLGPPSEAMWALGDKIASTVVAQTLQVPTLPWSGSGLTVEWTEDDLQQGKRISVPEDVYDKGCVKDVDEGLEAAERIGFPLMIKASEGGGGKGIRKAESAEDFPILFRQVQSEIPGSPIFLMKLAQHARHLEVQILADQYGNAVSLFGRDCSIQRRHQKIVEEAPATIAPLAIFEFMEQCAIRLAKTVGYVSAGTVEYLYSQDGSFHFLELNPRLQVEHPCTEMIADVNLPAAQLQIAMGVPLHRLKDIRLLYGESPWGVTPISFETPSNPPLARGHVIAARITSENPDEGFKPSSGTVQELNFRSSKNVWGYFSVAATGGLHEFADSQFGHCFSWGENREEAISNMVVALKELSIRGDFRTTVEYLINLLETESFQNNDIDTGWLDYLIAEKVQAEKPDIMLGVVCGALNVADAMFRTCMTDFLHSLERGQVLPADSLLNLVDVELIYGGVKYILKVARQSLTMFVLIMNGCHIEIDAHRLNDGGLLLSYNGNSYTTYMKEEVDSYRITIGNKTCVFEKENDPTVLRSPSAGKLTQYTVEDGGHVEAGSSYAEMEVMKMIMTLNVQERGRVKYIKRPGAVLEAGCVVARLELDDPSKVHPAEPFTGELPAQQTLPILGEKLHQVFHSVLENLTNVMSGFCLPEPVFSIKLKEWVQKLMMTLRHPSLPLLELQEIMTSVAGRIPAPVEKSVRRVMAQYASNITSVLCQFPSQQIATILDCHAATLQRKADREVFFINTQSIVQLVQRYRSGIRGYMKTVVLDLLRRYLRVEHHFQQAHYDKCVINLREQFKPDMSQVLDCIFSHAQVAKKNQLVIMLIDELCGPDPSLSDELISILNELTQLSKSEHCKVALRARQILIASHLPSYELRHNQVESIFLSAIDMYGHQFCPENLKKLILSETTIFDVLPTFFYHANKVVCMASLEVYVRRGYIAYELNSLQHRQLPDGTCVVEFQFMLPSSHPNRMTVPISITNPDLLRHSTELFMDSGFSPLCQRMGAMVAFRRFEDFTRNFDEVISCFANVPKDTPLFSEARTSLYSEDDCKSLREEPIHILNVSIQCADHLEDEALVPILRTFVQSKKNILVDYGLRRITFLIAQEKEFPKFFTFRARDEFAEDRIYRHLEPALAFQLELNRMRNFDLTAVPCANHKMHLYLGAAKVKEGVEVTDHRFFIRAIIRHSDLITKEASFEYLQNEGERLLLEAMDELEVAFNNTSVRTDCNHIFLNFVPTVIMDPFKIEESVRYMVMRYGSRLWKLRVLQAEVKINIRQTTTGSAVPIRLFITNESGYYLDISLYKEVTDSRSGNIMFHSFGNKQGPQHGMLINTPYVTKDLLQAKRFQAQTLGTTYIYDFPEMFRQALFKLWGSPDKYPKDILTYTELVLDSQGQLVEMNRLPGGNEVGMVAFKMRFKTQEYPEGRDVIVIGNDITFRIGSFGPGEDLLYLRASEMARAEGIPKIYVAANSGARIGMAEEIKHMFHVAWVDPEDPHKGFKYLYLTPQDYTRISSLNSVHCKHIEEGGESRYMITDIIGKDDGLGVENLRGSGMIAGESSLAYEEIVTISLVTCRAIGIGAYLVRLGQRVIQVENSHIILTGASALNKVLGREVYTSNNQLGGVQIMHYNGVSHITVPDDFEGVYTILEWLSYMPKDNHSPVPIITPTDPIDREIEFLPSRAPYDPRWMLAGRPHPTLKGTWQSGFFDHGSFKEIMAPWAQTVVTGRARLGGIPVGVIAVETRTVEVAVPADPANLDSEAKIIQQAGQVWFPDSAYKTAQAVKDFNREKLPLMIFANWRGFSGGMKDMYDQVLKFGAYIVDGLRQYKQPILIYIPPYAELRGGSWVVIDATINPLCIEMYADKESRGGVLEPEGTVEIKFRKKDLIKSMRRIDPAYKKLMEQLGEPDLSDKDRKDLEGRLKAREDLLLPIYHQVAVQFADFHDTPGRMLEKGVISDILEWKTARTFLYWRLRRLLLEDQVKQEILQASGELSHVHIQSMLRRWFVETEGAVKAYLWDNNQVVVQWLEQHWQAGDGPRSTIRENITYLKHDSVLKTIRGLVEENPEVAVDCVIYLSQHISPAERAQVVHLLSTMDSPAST", "test": "ACC2 assay, spectrophotometric 384 well assay (NADH-linked, coupled lactate dehydrogenase/pyruvate kinase)", "type": "biochemical", "conditions": "ACC2 assay, hACC2 construct lacking 128 N-terminal amino acids, 25° C., 340 nm; read-out: IC50", "in_short": "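Human ACC2 lacking N-terminal 128 aa, baculovirus/insect-cell expressed, anion-exchange purified; 100 mM Tris pH 7.5, 10 mM citrate, 25 mM KHCO3, 1% DMSO. Started with 200 μM NADH and acetyl-CoA plus 500 μM ATP; PK/LDH-coupled A340 decrease read 15 min at 25° C. IC50 by nonlinear fit of low-control-subtracted slopes.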", "units": {"IC50": "nM"}, "values": [
      {"molecule": "CC(=O)N[C@@H](C)c1ccc(C2CCN(c3ccc(C(C)C)cn3)CC2)cc1", "note": "[Example 4.13]", "IC50": 3200},
      {"molecule": "CC(=O)N[C@@H](C)c1ccc(C2CCN(c3ccc4nnn(C)c4n3)CC2)cc1", "note": "[Example 4.14]", "IC50": 2400},
      {"molecule": "CC(=O)N[C@@H](C)c1ccc(C2CCN(c3ccc(-c4ccccc4)cn3)CC2)cc1", "note": "[Example 4.15]", "IC50": 220},
      {"molecule": "COc1ccnc(N2CCC(c3ccc([C@H](C)NC(C)=O)cc3)CC2)c1", "note": "[Example 4.16]", "IC50": 1100},
      {"molecule": "CC(=O)N[C@@H](C)c1ccc(C2CCN(c3ccc(C(F)(F)F)cn3)CC2)cc1", "note": "[Example 4.17]", "IC50": 440},
      {"molecule": "CC(=O)N[C@@H](C)c1ccc(C2CCN(c3cc(C(F)(F)F)ccn3)CC2)cc1", "note": "[Example 4.18]", "IC50": 320},
      {"molecule": "CC(=O)N[C@@H](C)c1ccc(C2CCN(c3cccc(C(F)(F)F)n3)CC2)cc1", "note": "[Example 4.19]", "IC50": 100},
      {"molecule": "CC(=O)N[C@@H](C)c1ccc(C2CCN(c3ncc4c(C)n[nH]c4n3)CC2)cc1", "note": "[Example 4.20]", "IC50": 1300},
      {"molecule": "CC(=O)N[C@@H](C)c1ccc(C2CCN(c3nccc(-c4ccccc4)n3)CC2)cc1", "note": "[Example 4.21]", "IC50": 520},
      {"molecule": "CC(=O)N[C@@H](C)c1ccc(C2CCN(c3cc(-c4ccccc4)ncn3)CC2)cc1", "note": "[Example 4.22]", "IC50": 1100},
      {"molecule": "CC(=O)N[C@@H](C)c1ccc(C2CCN(c3nc(C)c4ccccc4n3)CC2)cc1", "note": "[Example 4.23]", "IC50": 720},
      {"molecule": "CC(=O)N[C@@H](C)c1ccc(C2CCN(c3ncnc4ccsc34)CC2)cc1", "note": "[Example 4.24]", "IC50": 2100},
      {"molecule": "CC(=O)N[C@@H](C)c1ccc(C2CCN(c3ccnc(C(C)C)n3)CC2)cc1", "note": "[Example 4.25]", "IC50": 230},
      {"molecule": "CC(=O)N[C@@H](C)c1ccc(C2CCN(c3ccnc(C(F)(F)F)n3)CC2)cc1", "note": "[Example 4.26]", "IC50": 290},
      {"molecule": "CCOc1cccc(N2CCC(c3ccc([C@H](C)NC(C)=O)cc3)CC2)n1", "note": "[Example 4.27]", "IC50": 330},
      {"molecule": "CC(=O)N[C@@H](C)c1ccc(C2CCN(c3ncc4nc(-c5ccccc5)oc4n3)CC2)cc1", "note": "[Example 4.28]", "IC50": 60},
      {"molecule": "CC(=O)N[C@@H](C)c1ccc(C2CCN(c3ncc(Cl)cn3)CC2)cc1", "note": "[Example 4.29]", "IC50": 1700},
      {"molecule": "CC(=O)N[C@@H](C)c1ccc(C2CCN(c3noc4ccccc34)CC2)cc1", "note": "[Example 4.30]", "IC50": 1100},
      {"molecule": "COc1cc2ccnc(N3CCC(c4ccc([C@H](C)NC(C)=O)cc4)CC3)c2cc1OC", "note": "[Example 4.31]", "IC50": 2000},
      {"molecule": "CC(=O)N[C@@H](C)c1ccc(C2CCN(c3nc4ccccc4nc3C)CC2)cc1", "note": "[Example 4.32]", "IC50": 2300},
      {"molecule": "COc1cnc(N2CCC(c3ccc([C@H](C)NC(C)=O)cc3)CC2)nc1", "note": "[Example 4.33]", "IC50": 510},
      {"molecule": "CC(=O)Nc1cnc(N2CCC(c3ccc([C@H](C)NC(C)=O)cc3)CC2)nc1", "note": "[Example 4.34]", "IC50": 9500},
      {"molecule": "CCCc1cnc(N2CCC(c3ccc([C@H](C)NC(C)=O)cc3)CC2)nc1", "note": "[Example 4.35]", "IC50": 510},
      {"molecule": "COC(=O)c1cnc(N2CCC(c3ccc([C@H](C)NC(C)=O)cc3)CC2)nc1", "note": "[Example 4.36]", "IC50": 1200},
      {"molecule": "CC(=O)N[C@@H](C)c1ccc(C2CCN(c3ncc(-c4ccc(Cl)cc4)cn3)CC2)cc1", "note": "[Example 4.37]", "IC50": 300},
      {"molecule": "CC(=O)N[C@@H](C)c1ccc(C2CCN(c3ncc(C(C)(C)C)cn3)CC2)cc1", "note": "[Example 4.38]", "IC50": 440},
      {"molecule": "CC(=O)N[C@@H](C)c1ccc(C2CCN(c3ncc([N+](=O)[O-])cn3)CC2)cc1", "note": "[Example 4.39]", "IC50": 1900},
      {"molecule": "CC(=O)N[C@@H](C)c1ccc(C2CCN(c3ncc(F)cn3)CC2)cc1", "note": "[Example 4.40]", "IC50": 930},
      {"molecule": "COc1ccc(-c2cnc(N3CCC(c4ccc([C@H](C)NC(C)=O)cc4)CC3)nc2)cc1", "note": "[Example 4.41]", "IC50": 100},
      {"molecule": "CCc1cnc(N2CCC(c3ccc([C@H](C)NC(C)=O)cc3)CC2)nc1", "note": "[Example 4.42]", "IC50": 530},
      {"molecule": "CC(=O)N[C@@H](C)c1ccc(C2CCN(c3ncc(I)cn3)CC2)cc1", "note": "[Example 4.43, (S)—N-(1-{4-[1-(5-iodopyrimidin-2-yl)-piperidin-4-yl]-phenyl}-ethyl)-acetamide]", "IC50": 410},
      {"molecule": "CC(=O)N[C@@H](C)c1ccc(C2CCN(c3ncc(Br)cn3)CC2)cc1", "note": "[Example 4.44]", "IC50": 650},
      {"molecule": "CC(=O)N[C@@H](C)c1ccc(C2CCN(c3ncccn3)CC2)cc1", "note": "[Example 4.45]", "IC50": 1500},
      {"molecule": "C[C@H](NC(=O)C1CC1)c1ccc(C2CCN(c3ncc4nc(-c5ccccc5)oc4n3)CC2)cc1", "note": "[Example 4.46]", "IC50": 210},
      {"molecule": "C[C@H](NC(=O)N(C)C)c1ccc(C2CCN(c3ncc4nc(-c5ccccc5)oc4n3)CC2)cc1", "note": "[Example 4.47]", "IC50": 80},
      {"molecule": "COC(=O)N[C@@H](C)c1ccc(C2CCN(c3ncc4nc(-c5ccccc5)oc4n3)CC2)cc1", "note": "[Example 4.48]", "IC50": 130},
      {"molecule": "CCCOc1cnc(N2CCC(c3ccc([C@H](C)NC(C)=O)cc3)CC2)nc1", "note": "[Example 4.49]", "IC50": 210},
      {"molecule": "CCOc1cnc(N2CCC(c3ccc([C@H](C)NC(C)=O)cc3)CC2)nc1", "note": "[Example 4.50]", "IC50": 460},
      {"molecule": "CC(=O)N[C@@H](C)c1ccc(C2CCN(c3ncc(OC(C)C)cn3)CC2)cc1", "note": "[Example 4.51]", "IC50": 310},
      {"molecule": "CC(=O)N[C@@H](C)c1ccc(C2CCN(c3ncc(OCC4CC4)cn3)CC2)cc1", "note": "[Example 4.52]", "IC50": 530},
      {"molecule": "CC(=O)N[C@@H](C)c1ccc(C2CCN(c3ncc(OCC4CC4(F)F)cn3)CC2)cc1", "note": "(some centres unmarked) [Example 4.53]", "IC50": 160},
      {"molecule": "CCC(=O)N[C@@H](C)c1ccc(C2CCN(c3ncc(C4CC4)cn3)CC2)cc1", "note": "[Example 4.54]", "IC50": 1800},
      {"molecule": "COC(=O)c1cnc(N2CCC(c3ccc([C@H](C)NC(C)=O)cc3)CC2)s1", "note": "[Example 4.101]", "IC50": 2700},
      {"molecule": "CC(=O)N[C@@H](C)c1ccc(C2CCN(c3ncc(C(C)(C)C)s3)CC2)cc1", "note": "[Example 4.102]", "IC50": 470},
      {"molecule": "CCCCOc1ccc(N2CCC(c3ccc([C@H](C)NC(C)=O)cc3)CC2)c(C#N)c1", "note": "[Example 4.201]", "IC50": 60},
      {"molecule": "CCC(C)Oc1ccc(N2CCC(c3ccc([C@H](C)NC(C)=O)cc3)CC2)c(C#N)c1", "note": "(some centres unmarked) [Example 4.202]", "IC50": 150},
      {"molecule": "C[C@H](NC(=O)C1CC1)c1ccc(C2CCN(c3ncc4nc(-c5ccsc5)oc4n3)CC2)cc1", "note": "[Example 4.301]", "IC50": 390},
      {"molecule": "C[C@H](NC(=O)N(C)C)c1ccc(C2CCN(c3ncc4nc(-c5ccsc5)oc4n3)CC2)cc1", "note": "[Example 4.302]", "IC50": 200},
      {"molecule": "C[C@H](NC(=O)C1CC1)c1ccc(C2CCN(c3ncc(C4CC4)cn3)CC2)cc1", "note": "[Example 4.303]", "IC50": 15600},
      {"molecule": "C[C@H](NC(=O)N(C)C)c1ccc(C2CCN(c3ncc(C4CC4)cn3)CC2)cc1", "note": "[Example 4.304]", "IC50": 240},
      {"molecule": "CCCOc1cnc(N2CCC(c3ccc([C@H](C)NC(=O)C4CC4)cc3)CC2)nc1", "note": "[Example 4.305]", "IC50": 1400},
      {"molecule": "CCCOc1cnc(N2CCC(c3ccc([C@H](C)NC(=O)N(C)C)cc3)CC2)nc1", "note": "[Example 4.306]", "IC50": 120},
      {"molecule": "CCOc1ccc(N2CCC(c3ccc([C@H](C)NC(C)=O)cc3)CC2)nc1", "note": "[Example 5.1, (S)—N-{1-[4-(5′-Ethoxy-3,4,5,6-tetrahydro-2H-[1,2′]bipyridinyl-4-yl)-phenyl]-ethyl}-acetamide]", "IC50": 200},
      {"molecule": "COc1ccc(N2CCC(c3ccc([C@H](C)NC(C)=O)cc3)CC2)nc1", "note": "[Example 5.2]", "IC50": 330},
      {"molecule": "CCCOc1ccc(N2CCC(c3ccc([C@H](C)NC(C)=O)cc3)CC2)nc1", "note": "[Example 5.3]", "IC50": 130},
      {"molecule": "CC(=O)N[C@@H](C)c1ccc(C2CCN(c3ccc(OCC(C)C)cn3)CC2)cc1", "note": "[Example 5.4]", "IC50": 90}
    ]}
  ]
}
